What is called IC50 is the concentration that gives 50% inhibition.

Activity calls are given as the source filed them. No cut-off is given here; in the data, nearly all actives have IC50 up to about 8.9 µM.

The assay has as its target Signal transducer and activator of transcription 3 (Homo sapiens) (UniProt P40763). Nature of the assay: STAT3 reporter inhibitors, potency, dose response, cell-based (AID 1399). The settings on record: human cell STAT3 reporter inhibition.
As to `C[C@H]1CCC[C@@H](O)CCC/C=C/c2cc(O)cc(O)c2C(=O)O1`, the IC50 is 5.25 µM.

Take `O=C(COc1ccc2ccccc2c1)Nc1ccncc1`: the IC50 is 6.11 µM.

Take `NC(=O)C1CCN(c2ccc(S(=O)(=O)N3CCC(Cc4ccccc4)CC3)cn2)CC1`: the IC50 was 4.93 µM.

Regarding `O=C1c2ccc(Br)cc2C(=O)N1c1ccc(Cc2ccncc2)cc1`, the IC50 was 5.65 µM.

`O=C(Nc1ccncc1)c1ccc2c(c1)C(=O)N(C1CCCCC1)C2=O`: the IC50 is 2.42 µM.

As to `Clc1ccc(CSc2nnc(Cn3cnc4ccccc43)o2)cc1`, the IC50 was 5.02 µM.

Consider `COc1cc(OC)cc(C(=O)Nc2ccc(-c3nc4ccccc4o3)cc2)c1`, for which the IC50 result is “inactive”.

Take `Cc1ccc(N2C(=O)c3ccccc3C2O)nc1` (stereo unspecified): the IC50 was 5.98 µM.

Consider `O=C(COC(=O)c1n[nH]c2ccccc12)Nc1ccc(S(=O)(=O)N2CCCC2)cc1`, for which the IC50 was 4.5 µM.

`Cc1csc(NC(=O)c2cc3c(s2)CCCC3)n1`: the IC50 is 3.82 µM.

With `O=C(Nc1ccc(N2CCOCC2)nc1)c1ccc(C(F)(F)F)cc1`, the IC50 was 3.4 µM.

Turning to `O=C(Nc1ccncc1)c1ccc(-c2ccccc2)cc1`, the IC50 was 2.16 µM.

Take `CCCOc1ccc(/C=N/NC(=S)Nc2ccccc2[N+](=O)[O-])c(O)c1`: the IC50 was 1.05 µM.

Consider `CCOC(=O)C1=C(Cc2ccc(C)cc2)C(=O)c2ccccc2C1=O`, for which the IC50 was 7.04 µM.

Consider `Oc1ccc(-c2n[nH]c(=S)n2-c2ccc3c(c2)OCCO3)c(O)c1`, for which the IC50 is 5.37 µM.

On to `O=C(Nc1nccs1)c1ccc(S(=O)(=O)NCC2CCCCC2)cc1`, for which the IC50 was 3.03 µM.

In the case of `CCCOc1ccc(CSc2nc3ccccc3[nH]2)cc1`, the IC50 was 6.53 µM.

Regarding `O=C1C2C3c4ccccc4C(c4ccccc43)[C@@H]2c2nc3ccccc3n21` (stereo partly specified), the IC50 is 4.51 µM.

Turning to `O=C(Nc1cccc(O)c1)C(=O)Nc1ccccn1`, the IC50 is 3.7 µM.

As for `Cc1ccc(-c2cn3cc([N+](=O)[O-])ccc3n2)cc1`, the IC50 is 4.09 µM.

`COc1ccc(Br)cc1/C(C)=N/NC1=NCCN1`: the IC50 is 5.44 µM.

Values taken from PubChem BioAssay AID1399 (The Scripps Research Institute Molecular Screening Center, 2008).
